The results in this text go back to patent publication US9187410B2, “Process for isolating tigecycline and tigecycline made therefrom” (Hovione Inter Limited, priority 2009, dated 2015).

What all share (assay type): physicochemical
Data set [1] can be described thus: Modulated differential scanning calorimetry (mDSC/DSC) of amorphous tigecycline. As to conditions: unstressed sample; for glass transition temperature (Tg): mDSC, 25° C. to 300° C. at 3° C./min. As for the experimental part:
The DSC apparatus used was a DSC Q200 from TA Instruments, using the following settings: method—from 25° C. to 300° C. at 3° C./min; modulate +/−0.50° C. every 40 seconds. In addition to a higher Tg value, spray dried tigecycline also crystallizes and melts (after crossing the glass transition) at higher temperature than lyophilized tigecycline. By Tg we mean the critical temperature at which the material changes its behaviour from being ‘glassy’ to being ‘rubbery’. ‘Glassy’ in this context means hard and brittle (and therefore relatively easy to break), while ‘rubbery’ means elastic and flexible.
Background: In DSC, transitions show as peaks or steps in heat flow.

Data set [2] in a line: Dynamic Vapour Sorption (DVS) water uptake. The note with it: 25° C. As to the method: We also have performed Dynamic Vapour Sorption studies (DVS) and these studies have shown that samples of tigecycline isolated by spray drying and by lyophilzation have distinctive hygroscopic behavior. […] The DVS conditions were as follows: temperature-25° C.; equilibrium criteria 0.00% w/w every 10 min; maximum equilibrium time—120 min; start RH—5%; maximum RH—95%; steps—10%. A vapor sorption analyzer (VTI-SGA 100) was used. […] The difference in the water uptake between the two forms increases with RH for most of the isotherm. By RH we mean relative humidity, the amount of water vapor that exists in a gaseous mixture of air and water. At 45% humidity, the spray dried sample takes up 2.9% w/w water and lyophilized sample 3.9% w/w water. At 95% humidity, the difference is even more evident: the spray dried form takes up 22.6% w/w water and the lyophilized form 24.5% w/w water. The form obtained by lyophilization is more hygroscopic than the form obtained by spray drying.

The nature of data set [3]: DSC after fast stress conditions (oven at 100° C. for 24 hours). The note with it: after 24 hours at 100° C. As for the experimental part:
The DSC apparatus used was a DSC Q200 from TA Instruments, using the following settings: method—from 25° C. to 300° C. at 3° C./min; modulate +/−0.50° C. every 40 seconds. Spray dried tigecycline and lyophilized tigecycline were submitted to fast stress conditions by placing the samples in an oven at 100° C. for 24 hours. The reversible and total flow DSC curves for the stressed samples were then measured and the results are presented in FIG. 4 and FIG. 5 respectively.

For `CN(C)c1cc(NC(=O)CNC(C)(C)C)c(O)c2c1C[C@H]1C[C@H]3[C@H](N(C)C)C(O)=C(C(N)=O)C(=O)[C@@]3(O)C(O)=C1C2=O` [lyophilized tigecycline, tigecycline], the “glass transition temperature (Tg)” value in data set [1] (listed as lyophilized compound of formula [1]) worked out at 126 °C. Besides, the water uptake in data set [2] (45% humidity, listed as lyophilized sample) was determined as 3.9 % w/w; in data set [2] (95% humidity, listed as lyophilized form) it was 24.5 % w/w.

As to `CN(C)c1cc(NC(=O)CNC(C)(C)C)c(O)c2c1C[C@H]1C[C@H]3[C@H](N(C)C)C(O)=C(C(N)=O)C(=O)[C@@]3(O)C(O)=C1C2=O` [spray dried tigecycline, tigecycline], in data set [1] (listed as amorphous compound of formula [1] obtained by spray drying), the “glass transition temperature (Tg)” value worked out at 129 °C. In addition, the crystallisation temperature in data set [1] (total heat flow DSC) is ≥ 146 °C. Further, in data set [3], the “crystallization temperature after stress” value was ≥ 154 °C and the “glass transition temperature after stress” value was ≥ 143 °C. For the same molecule, the water uptake in data set [2] (45% humidity, listed as spray dried sample) worked out at 2.9 % w/w. In data set [2] (95% humidity, listed as spray dried form), the water uptake was found to be 22.6 % w/w.
